In patent publication US20240025906A1 (NEURON23, INC., priority 2022, published 2024):
Where two headings read alike, the source gives them in different places.

Legend:
TYK2 JH2 = biological target: T1, TYK2 JH2 (Homo sapiens, UniProt P29597); assay: TYK2 JH2 binding assay (KINOMEscan KdELECT competitive binding); conditions: TYK2 JH2 domain
T1 construct: purchased DiscoverX (KINOMEscan KdELECT service); host or cells: E. coli BL21-derived (T7 phage display) or HEK-293
In short: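 The assay measures displacement of DNA- or phage-tagged TYK2 pseudokinase domain from an affinity resin; compound binding lowers the amount captured, read by qPCR. Incubation lasts 1 h at room temperature.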

[1] = test system: JAK1/TYK2 pSTAT5 (Tyr694/699) in THP-1 cell line; assay: IFNa-stimulated JAK1/TYK2 pSTAT5 (Tyr694/699) inhibition cellular assay, AlphaLISA; assay type: cell-based; conditions: Homo sapiens, THP-1 cells, AlphaLISA (Assay B)
In short: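 THP-1 cells (2e4/well in HBSS) were preincubated with compound (8 points, 6-fold steps from 10000 nM final) for 1 h at 37 °C, then stimulated with IFNa (added at 100 ng/mL) for 30 min. Lysate pSTAT5 was read by AlphaLISA at 615 nm. IC50 came from a 4-parameter fit with bottom 0 and Hill −1.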

[2] = KINOMEscan KdELECT (Assay A), read-out: Biochemical TYK2_DiscoverX_JH2_BND_Kd
[3] = IFNa-stimulated pSTAT5 (Tyr694/699), read-out: Cellular_THP1_IFNa-pSTATS_TYK2
[4] = IFNa-stimulated, read-out: Cellular_THP1_IFNa-pSTATS_TYK2
[5] = DiscoverX KINOMEscan KdELECT (Assay A), read-out: Biochemical TYK2_DiscoverX_JH2_BND_Kd
[6] = KINOMEscan KdELECT (Assay A), read-out: Biochemical TYK2_JH2_Kd
[7] = IFNa-stimulated, read-out: Cellular THP1_IFNa-pSTATS_IC50

T1 sequence (P29597 589-875 limits assumed): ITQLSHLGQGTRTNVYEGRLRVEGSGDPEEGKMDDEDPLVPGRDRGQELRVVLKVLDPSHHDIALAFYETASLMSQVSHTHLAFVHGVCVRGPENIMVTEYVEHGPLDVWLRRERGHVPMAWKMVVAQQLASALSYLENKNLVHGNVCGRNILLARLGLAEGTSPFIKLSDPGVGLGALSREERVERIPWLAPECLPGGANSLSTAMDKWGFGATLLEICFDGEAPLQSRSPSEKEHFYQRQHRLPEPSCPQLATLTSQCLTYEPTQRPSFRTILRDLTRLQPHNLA

Kd (TYK2 JH2; [2]) [nM] | IC50 [1, 4] [nM] | Kd (TYK2 JH2; [5]) [nM] | Compound | also measured
≤ 100 |  |  | CNc1ncc(C#Cc2ccc3c(c2)OC(C)CO3)c2cc(NC(=O)C3CC3)ncc12 (stereo not drawn) [Example 1005, N-(5-((3-methyl-2,3-dihydrobenzo[b][1,4]dioxin-6-yl)ethynyl)-8-(methylamino)-2,7-naphthyridin-3-yl)cyclopropanecarboxamide] | IC50 [1, 3]: ≤ 500 nM
≤ 100 | > 500 |  | CNc1ncc(C#Cc2ccc(OC)cn2)c2c(Cl)c(NC(=O)C3CC3)ncc12 [Example 889, N-(4-chloro-5-((5-methoxypyridin-2-yl)ethynyl)-8-(methylamino)-2,7-naphthyridin-3-yl)cyclopropanecarboxamide] | 
 | ≤ 500 | ≤ 100 | CNc1ncc(-c2nc3cc(C4CN(S(C)(=O)=O)C4)ccc3o2)c2cc(NC(=O)C3CC3)ncc12 [Example 252, N-(8-(methylamino)-5-(5-(1-(methylsulfonyl)azetidin-3-yl)benzo[d]oxazol-2-yl)-2,7-naphthyridin-3-yl)cyclopropanecarboxamide] | 
≤ 100 | ≤ 500 |  | CNc1ncc(C#Cc2ccc3cnn(C)c3c2)c2cc(NC(=O)C3CC3)ncc12 [Example 617] | 
 | ≤ 500 | ≤ 100 | [2H]C([2H])([2H])Oc1ccc2oc(-c3cnc(NC)c4cnc(NC(=O)C5CC5)cc34)nc2c1 [Example 195, N-(5-(5-(methoxy-d3)benzo[d]oxazol-2-yl)-8-(methylamino)-2,7-naphthyridin-3-yl)cyclopropanecarboxamide] | 
≤ 100 | ≤ 500 |  | CNc1ncc(C#Cc2ccc(N3CC4CN(C)CC(C3)O4)cc2)c2cc(NC(=O)C3CC3)ncc12 [Example 734, N-(5-((4-(7-methyl-9-oxa-3,7-diazabicyclo[3.3.1]nonan-3-yl)phenyl)ethynyl)-8-(methylamino)-2,7-naphthyridin-3-yl)cyclopropanecarboxamide] | 
 |  |  | CNc1ncc(Br)c2cc(NC(=O)C3CC3)nnc12 [Example 177, N-(5-bromo-8-(methylamino)pyrido[3,4-c]pyridazin-3-yl)cyclopropanecarboxamide] | Kd (TYK2 JH2; [6]): ≤ 100 nM; IC50 [1, 7]: > 500 nM
 | ≤ 500 | ≤ 100 | CNc1ncc(-c2nc3ccc(N4CCOCC4)cn3n2)c2cc(NC(=O)C3CC34CC4)ncc12 (stereo not drawn) [Example 531, N-(8-(methylamino)-5-(6-morpholino-[1,2,4]triazolo[1,5-a]pyridin-2-yl)-2,7-naphthyridin-3-yl)spiro[2.2]pentane-1-carboxamide] | 
 | ≤ 500 | ≤ 100 | CNc1ncc(-c2nc3ccc(OCC(C)(C)O)cn3n2)c2cc(NC(=O)C3CC3)ncc12 [Example 501, N-(5-(6-(2-hydroxy-2-methylpropoxy)-[1,2,4]triazolo[1,5-a]pyridin-2-yl)-8-(methylamino)-2,7-naphthyridin-3-yl)cyclopropanecarboxamide] | 
 | ≤ 500 | ≤ 100 | [2H]C([2H])([2H])Nc1ncc(-c2nc3cc(N4CCOCC4)ccc3o2)c2cc(NC(=O)C3CC3)ncc12 [Example 364, N-(8-((methyl-d3)amino)-5-(5-morpholinobenzo[d]oxazol-2-yl)-2,7-naphthyridin-3-yl)cyclopropanecarboxamide] | 
 |  |  | CNc1ncc(/C=C2\CCOC2)c2cc(NC(=O)C3CC3)ncc12 [Example 79, (E)-N-(5-((dihydrofuran-3(2H)-ylidene)methyl)-8-(methylamino)-2,7-naphthyridin-3-yl)cyclopropanecarboxamide] | Kd (TYK2 JH2; [6]): ≤ 100 nM; IC50 [1, 7]: > 500 nM
 | ≤ 500 | ≤ 100 | CNc1ncc(-c2nc3c(COC)cccc3o2)c2cc(NC(=O)C3CC3)ncc12 [Example 201, N-(5-(4-(methoxymethyl)benzo[d]oxazol-2-yl)-8-(methylamino)-2,7-naphthyridin-3-yl)cyclopropanecarboxamide] | 
 | ≤ 500 | ≤ 100 | CNc1ncc(-c2nc3cc(C4CCNCC4)ccc3o2)c2cc(NC(=O)C3CC3)ncc12 [Example 359, N-(8-(methylamino)-5-(5-(piperidin-4-yl)benzo[d]oxazol-2-yl)-2,7-naphthyridin-3-yl)cyclopropanecarboxamide 2,2,2-trifluoroacetate] | 
 | ≤ 500 | ≤ 100 | CNc1ncc(-c2nc3cc(OC)ccc3o2)c2cc(NC(=O)[C@@H]3C[C@@H]3C(F)F)ncc12 (single isomer, unassigned) [Example 394] | 
 |  |  | CNc1ncc(-c2nc(C)c[nH]2)c2cc(NC(=O)C3CC3)ncc12 [Example 140, N-(5-(4-methyl-1H-imidazol-2-yl)-8-(methylamino)-2,7-naphthyridin-3-yl)cyclopropanecarboxamide] | Kd (TYK2 JH2; [6]): ≤ 100 nM; IC50 [1, 7]: > 500 nM
 | ≤ 500 | ≤ 100 | CNc1ncc(-c2nc3cc(N4CCOC(C(C)(F)F)C4)ccc3o2)c2cc(NC(=O)C3CC3)ncc12 (stereo not drawn) [Example 330, N-(5-(5-(2-(1,1-difluoroethyl)morpholino)benzo[d]oxazol-2-yl)-8-(methylamino)-2,7-naphthyridin-3-yl)cyclopropanecarboxamide] | 
≤ 100 | ≤ 500 |  | CNc1ncc(C#Cc2ccc(N3CCO[C@@H](C)C3)cc2)c2cc(NC(=O)C3CC3)ncc12 [Example 709, (S)—N-(8-(methylamino)-5-((4-(2-methylmorpholino)phenyl)ethynyl)-2,7-naphthyridin-3-yl)cyclopropanecarboxamide] | 
≤ 100 | ≤ 500 |  | CNc1ncc(C#Cc2ccc3c(c2)CC[C@@H](COC)O3)c2cc(NC(=O)C3CC3)ncc12 (single isomer, unassigned) [Example 989] | 
≤ 100 | ≤ 500 |  | CCc1nc2ccc(C#Cc3cnc(NC)c4cnc(NC(=O)C5CC5)cc34)cc2n1C [Example 811, N-(5-((2-ethyl-1-methyl-1H-benzo[d]imidazol-6-yl)ethynyl)-8-(methylamino)-2,7-naphthyridin-3-yl)cyclopropanecarboxamide] | 
 | ≤ 500 | ≤ 100 | CNc1ncc(-c2nc3ccc(N4CCO[C@@H](C)C4)cn3n2)c2cc(Nc3ccn(C)n3)ncc12 [Example 545, (S)—N^1-methyl-N^6-(1-methyl-1H-pyrazol-3-yl)-4-(6-(2-methylmorpholino)-[1,2,4]triazolo[1,5-a]pyridin-2-yl)-2,7-naphthyridine-1,6-diamine] | 
 | ≤ 500 | ≤ 100 | CNc1ncc(-c2nc3cc(N4CCOCC4)ccc3o2)c2cc(NC(=O)[C@H]3C[C@H]3CF)ncc12 (single isomer, unassigned) [Example 451] | 
≤ 100 | ≤ 500 |  | CNc1ncc(-c2nc3cc(N4CC[C@H](F)C4)ccc3o2)c2cc(NC(=O)C3CC3)ncc12 (single isomer, unassigned) [Example 945] | 
≤ 100 | ≤ 500 |  | CNc1ncc(C#Cc2ncc(OC)cc2C)c2cc(NC(=O)C3CC3)ncc12 [Example 664, N-(5-((5-methoxy-3-methylpyridin-2-yl)ethynyl)-8-(methylamino)-2,7-naphthyridin-3-yl)cyclopropanecarboxamide] | 
≤ 100 |  |  | CNc1ncc(-c2nc3cc(N4CCO[C@@H](C(F)F)C4)ccc3o2)c2cc(NC(=O)[C@H]3C[C@H]3C)ncc12 [Example 1059] | IC50 [1, 3]: ≤ 500 nM
 |  |  | CNc1ncc(CC(F)(F)F)c2cc(NC(=O)C3CC3)ncc12 [Example 88, N-(8-(methylamino)-5-(2,2,2-trifluoroethyl)-2,7-naphthyridin-3-yl)cyclopropanecarboxamide] | Kd (TYK2 JH2; [6]): ≤ 100 nM; IC50 [1, 7]: > 500 nM
≤ 100 |  |  | CNc1ncc(-c2nc3ccc(N4CCO[C@H](C(C)(C)O)C4)cn3n2)c2cc(NC(=O)C3CC3)ncc12 [Example 1028] | IC50 [1, 3]: ≤ 500 nM
≤ 100 | ≤ 500 |  | CNc1ncc(-c2ccc(-c3cn(C)nn3)cc2)c2cc(NC(=O)C3CC3)ncc12 [Example 871, N-(5-(4-(1-methyl-1H-1,2,3-triazol-4-yl)phenyl)-8-(methylamino)-2,7-naphthyridin-3-yl)cyclopropanecarboxamide] | 
≤ 100 | ≤ 500 |  | CCn1c(C)nc2ccc(C#Cc3cnc(NC)c4cnc(NC(=O)C5CC5)cc34)cc21 [Example 761, N-(5-((1-ethyl-2-methyl-1H-benzo[d]imidazol-6-yl)ethynyl)-8-(methylamino)-2,7-naphthyridin-3-yl)cyclopropanecarboxamide] | 
 | ≤ 500 | ≤ 100 | CNc1ncc(-c2nc3cc(OC)c(OC)cc3o2)c2cc(NC(=O)C3CC3)ncc12 [Example 202, N-(5-(5,6-dimethoxybenzo[d]oxazol-2-yl)-8-(methylamino)-2,7-naphthyridin-3-yl)cyclopropanecarboxamide] | 

Compound | Kd (TYK2 JH2; [2]) [nM] | IC50 [1, 4] [nM] | Kd (TYK2 JH2; [5]) [nM] | also measured
CNc1ncc(-c2nc3cc(O[C@H]4C[C@H](OC)C4)ccc3o2)c2cc(NC(=O)C3CC3)ncc12 [Example 199, N-(5-(5-((1r,3r)-3-methoxycyclobutoxy)benzo[d]oxazol-2-yl)-8-(methylamino)-2,7-naphthyridin-3-yl)cyclopropanecarboxamide] |  | ≤ 500 | ≤ 100 | 
